Experimental data: patent publication US10800752B2, “Substituted naphtho[2,3-b]furans as water-soluble prodrugs for preventing and/or treating cancer” (BOSTON BIOMEDICAL, INC., priority 2015, dated 2020)
Read-outs that look alike come from different tables or passages of the source.

Assay type: in vivo, CD1 (ICR) mice
Settings: for Plasma Compound Concentration: Activated form 1 in plasma, 232.5 mg/kg (p.o.)
Description: It was then centrifuged to obtain plasma.

COC(=O)[C@@H](N)CCNC(=O)Oc1c2ccccc2c(OC(=O)NCC[C@H](N)C(=O)OC)c2oc(C(C)=O)cc12.Cl.Cl [Example 11]
Plasma Compound Concentration (0.25 hr, animal 1): 18.86 µM | Plasma Compound Concentration (0.25 hr, animal 2): 19.65 µM | Plasma Compound Concentration (0.25 hr, animal 3): 25.31 µM | Plasma Compound Concentration (0.25 hr, mean): 21.27 µM | Plasma Compound Concentration (0.5 hr, animal 1): 17.48 µM | Plasma Compound Concentration (0.5 hr, animal 2): 11.45 µM | Plasma Compound Concentration (0.5 hr, animal 3): 17.11 µM | Plasma Compound Concentration (0.5 hr, mean): 15.35 µM | Plasma Compound Concentration (1.0 hr, animal 1): 10.87 µM | Plasma Compound Concentration (1.0 hr, animal 2): 18.98 µM | Plasma Compound Concentration (1.0 hr, animal 3): 15.93 µM | Plasma Compound Concentration (1.0 hr, mean): 15.26 µM | Plasma Compound Concentration (2.0 hr, animal 1): 13.53 µM | Plasma Compound Concentration (2.0 hr, animal 2): 6.62 µM | Plasma Compound Concentration (2.0 hr, animal 3): 13.57 µM | Plasma Compound Concentration (2.0 hr, mean): 11.24 µM | Plasma Compound Concentration (4.0 hr, animal 1): 6.12 µM | Plasma Compound Concentration (4.0 hr, animal 2): 3.73 µM | Plasma Compound Concentration (4.0 hr, animal 3): 11.49 µM | Plasma Compound Concentration (4.0 hr, mean): 7.11 µM | Plasma Compound Concentration (6.0 hr, animal 1): 2.37 µM | Plasma Compound Concentration (6.0 hr, animal 2): 0.60 µM | Plasma Compound Concentration (6.0 hr, animal 3): 0.75 µM | Plasma Compound Concentration (6.0 hr, mean): 1.24 µM | Plasma Compound Concentration (24.0 hr, animal 3): 0.04 µM | Plasma Compound Concentration (24.0 hr, mean): 0.01 µM | concentration of 2-acetylnaphtho[2,3-b]furan-4,9-dione (Activated form 1) observed (in words) (orally administered to mice): high concentration
